Measurements as given in publication PMC7749516, “Safety and nonclinical and clinical pharmacokinetics of PC945, a novel inhaled triazole antifungal agent” (Pharmacology Research & Perspectives, 2020).
Values after ≈ are worked out from the molar mass of the structure shown. Values joined by “and” are separate entries in the source; they are usually repeats but may differ in a detail not shown here. Equal values may be shown once.

What was measured:
[1] = Toxicokinetics/toxicity in rats, daily 2-hour inhalation for 14 days (plasma); settings: for Ro (accumulation ratio): AUC0‐24h (Day14)/AUC0‐24h (Day 1)
From the text: Each dose was inhaled over a 2‐hour period once daily for 14 days.
Lower limit of quantification of the assay was 10 pg/mL for clinical samples and 100 pg/mL for rat and dog plasma samples.

[2] = Clinical pharmacokinetics, single inhaled dose in subjects with mild asthma (Cohort 3); assay type: in vivo, human; settings: single inhaled 5 mg
From the text: (§1) Part one consisted of a single dose escalation study (Cohort 1) and a repeat dose study (Cohort 2) of inhaled PC945 in healthy subjects. Part two comprised a single dose study of inhaled PC945 in subjects with mild asthma (Cohort 3). The doses selected were predicted to achieve target lung concentrations above the IC90/MIC90 for A. fumigatus (based on data from a range of in vitro and in vivo systems) throughout a 24‐hour period and with a suitable safety margin based on animal toxicology data.
In Cohort 3, nine subjects with mild asthma (six males and three females; mean age: 37.7 years, mean weight: 82.70 kg, mean BMI: 26.48 kg/m^2) received a single dose of PC945 5 mg or placebo (PC945:placebo = 2:1).
Serial blood samples were collected to determine plasma PC945 concentrations. For the single dose study in healthy subjects and in subjects with mild asthma, blood samples were collected predose and at 0.25, 0.5, 1, 2, 4, 6, 8, 24, 30, and 48 hours postend of inhalation and at the follow‐up visit. For the repeat dose study, blood samples were collected (a) predose and at 0.25, 0.5, 1, 2, 4, 6, 8, 10, 12, and 24 hours postend of inhalation on Days 1 and 7, and 30 and 48 hours on Day 7; (b) predose on Days 5 and 6; (c) at the follow‐up visit.

[3] = test system: A. fumigatus strains; parameters: method as in PMID 28223388; settings: EUCAST method, 96 clinically isolated A. fumigatus strains; cited from earlier work
[4] = First-in-human safety and tolerability (adverse events, spirometry); assay type: in vivo; settings: for No. of subjects with treatment‐emergent adverse events attributed to study drug / Subjects with drug-related adverse event: Cough / Subjects with drug-related adverse event: Diarrhea / Subjects with drug-related adverse event: Dizziness / Subjects with drug-related adverse event: Fatigue / Subjects with drug-related adverse event: Feces soft / Subjects with drug-related adverse event: Headache / Subjects with drug-related adverse event: Lethargy / Subjects with drug-related adverse event: Muscle spasms / Subjects with drug-related adverse event: Nausea / Subjects with drug-related adverse event: Productive cough / Subjects with drug-related adverse event: Throat tightness: N = 6
Method: This PC945 first‐in‐human clinical trial (ClinicalTrials.gov Identifier: NCT02715570) was a two‐part randomized, placebo‐controlled study to assess the safety and tolerability of PC945 in both healthy subjects and subjects with mild asthma, conducted at Parexel Early Phase Clinical Unit (Harrow, UK). The study was considered single‐blind as the appearance of active and placebo doses were different, however, it was conducted in a double‐blind manner (employing separate dosing and assessment teams).
as §1
Safety was evaluated based on assessments of adverse events, physical examination, vital signs, 12‐lead electrocardiogram, spirometry and clinical laboratory tests. The verbatim terms used to identify adverse events were coded using the Medical Dictionary for Regulatory Activities (version 20.1). All adverse events were mapped to system organ class and preferred term.
Spirometry parameters (FEV1 and FVC) were measured in all subjects to evaluate the local tolerability and potential for bronchospasm of PC945 in accordance with American Thoracic Society/European Respiratory Society guidelines. Predicted values were calculated using National Health and Nutrition Examination Survey reference equations. ^18 , ^19

[5] = female rats, Day 14 of inhaled 2.0 mg/kg/day
[6] = female rats, Day 14 of inhaled 7.1 mg/kg/day
[7] = female rats, Day 14 of inhaled 16.6 mg/kg/day
[8] = female rats, single inhaled dose 2.0 mg/kg (Day 1)
[9] = female rats, single inhaled dose 7.1 mg/kg (Day 1)
[10] = female rats, single inhaled dose 16.6 mg/kg (Day 1)
[11] = male rats, Day 14 of inhaled 2.0 mg/kg/day
[12] = male rats, Day 14 of inhaled 7.1 mg/kg/day
[13] = male rats, Day 14 of inhaled 16.6 mg/kg/day
[14] = male rats, single inhaled dose 2.0 mg/kg (Day 1)
[15] = male rats, single inhaled dose 7.1 mg/kg (Day 1)
[16] = male rats, single inhaled dose 16.6 mg/kg (Day 1)
[17] = Cohort 1 healthy, single dose 0.5 mg
[18] = Cohort 1 healthy, single dose 2 mg
[19] = Cohort 1 healthy, single dose 5 mg
[20] = Cohort 1 healthy, single dose 10 mg
[21] = Cohort 2 healthy, 5 mg once daily for 7 days
[22] = Cohort 3 mild asthma, single dose 5 mg

Cc1cc(N2CCN(c3ccc(C(=O)Nc4ccc(F)cc4)cc3)CC2)ccc1OC[C@@H]1CO[C@@](Cn2cncn2)(c2ccc(F)cc2F)C1 [PC945]
Ro (accumulation ratio) ([1]; female rats, 2.0 mg/kg/day): 1.84
Ro (accumulation ratio) ([1]; female rats, 16.6 mg/kg/day): 2.53
AUC0‐24h [1, 5]: 336 ng·h/mL
C max [1, 5]: 19.2 ng/mL
AUC0‐24h [1, 6]: 749 ng·h/mL
C max [1, 6]: 50.4 ng/mL
AUC0‐24h [1, 7]: 1850 ng·h/mL
C max [1, 7]: 92.3 ng/mL
AUC0‐24h [1, 8]: 183 ng·h/mL
C max [1, 8]: 10.5 ng/mL
AUC0‐24h [1, 9]: 416 ng·h/mL
C max [1, 9]: 24.8 ng/mL
AUC0‐24h [1, 10]: 731 ng·h/mL
C max [1, 10]: 41.3 ng/mL
Ro (accumulation ratio) ([1]; male rats, 2.0 mg/kg/day): 1.96
AUC0‐24h [1, 11]: 202 ng·h/mL
C max [1, 11]: 12.3 ng/mL
AUC0‐24h [1, 12]: 424 ng·h/mL
C max [1, 12]: 23.7 ng/mL
AUC0‐24h [1, 13]: 1140 ng·h/mL
C max [1, 13]: 76.9 ng/mL
AUC0‐24h [1, 14]: 103 ng·h/mL
C max [1, 14]: 7.3 ng/mL
AUC0‐24h [1, 15]: 217 ng·h/mL
C max [1, 15]: 15.8 ng/mL
AUC0‐24h [1, 16]: 426 ng·h/mL
C max [1, 16]: 26.0 ng/mL
Margin over the clinical AUC following a 5 mg dose ([1]; rat, highest dose tested): 12 fold
Time of C max after a single dose ([1]; rats, after the 2-hour inhalation): 4 h
Systemic toxicity ([1]; rats, highest dose tested): No systemic toxicity
Time of C max after the start of dosing ([1]; rats, single 2-hour inhaled dose (Day 1)): 6 h
AUC0–24h [2]: 4.95 ng·h/mL
median t max [2]: 4 h
C max ([2]; geometric mean): 0.335 ng/mL
Geometric mean minimum inhibitory concentration (MIC) [3]: 0.17 µg/mL
MIC50 [3]: 0.125 µg/mL (≈ 0.183 µM)
MIC90 [3]: 1.0 µg/mL and 1 µg/mL
No. of subjects with treatment‐emergent adverse events attributed to study drug [4, 17]: 1 (16.67) n (%)
Subjects with drug-related adverse event: Cough [4, 17]: 0 n (%)
Subjects with drug-related adverse event: Diarrhea [4, 17]: 0 n (%)
Subjects with drug-related adverse event: Dizziness [4, 17]: 0 n (%)
Subjects with drug-related adverse event: Fatigue [4, 17]: 1 (16.67) n (%)
Subjects with drug-related adverse event: Feces soft [4, 17]: 0 n (%)
Subjects with drug-related adverse event: Headache [4, 17]: 0 n (%)
Subjects with drug-related adverse event: Lethargy [4, 17]: 0 n (%)
Subjects with drug-related adverse event: Muscle spasms [4, 17]: 0 n (%)
Subjects with drug-related adverse event: Nausea [4, 17]: 0 n (%)
Subjects with drug-related adverse event: Productive cough [4, 17]: 0 n (%)
Subjects with drug-related adverse event: Throat tightness [4, 17]: 0 n (%)
No. of subjects with treatment‐emergent adverse events attributed to study drug [4, 18]: 0 n (%)
Subjects with drug-related adverse event: Cough [4, 18]: 0 n (%)
Subjects with drug-related adverse event: Diarrhea [4, 18]: 0 n (%)
Subjects with drug-related adverse event: Dizziness [4, 18]: 0 n (%)
Subjects with drug-related adverse event: Fatigue [4, 18]: 0 n (%)
Subjects with drug-related adverse event: Feces soft [4, 18]: 0 n (%)
Subjects with drug-related adverse event: Headache [4, 18]: 0 n (%)
Subjects with drug-related adverse event: Lethargy [4, 18]: 0 n (%)
Subjects with drug-related adverse event: Muscle spasms [4, 18]: 0 n (%)
Subjects with drug-related adverse event: Nausea [4, 18]: 0 n (%)
Subjects with drug-related adverse event: Productive cough [4, 18]: 0 n (%)
Subjects with drug-related adverse event: Throat tightness [4, 18]: 0 n (%)
No. of subjects with treatment‐emergent adverse events attributed to study drug [4, 19]: 2 (33.33) n (%)
Subjects with drug-related adverse event: Cough [4, 19]: 0 n (%)
Subjects with drug-related adverse event: Diarrhea [4, 19]: 0 n (%)
Subjects with drug-related adverse event: Dizziness [4, 19]: 1 (16.67) n (%)
Subjects with drug-related adverse event: Fatigue [4, 19]: 0 n (%)
Subjects with drug-related adverse event: Feces soft [4, 19]: 1 (16.67) n (%)
Subjects with drug-related adverse event: Headache [4, 19]: 1 (16.67) n (%)
Subjects with drug-related adverse event: Lethargy [4, 19]: 1 (16.67) n (%)
Subjects with drug-related adverse event: Muscle spasms [4, 19]: 1 (16.67) n (%)
Subjects with drug-related adverse event: Nausea [4, 19]: 1 (16.67) n (%)
Subjects with drug-related adverse event: Productive cough [4, 19]: 0 n (%)
Subjects with drug-related adverse event: Throat tightness [4, 19]: 0 n (%)
No. of subjects with treatment‐emergent adverse events attributed to study drug [4, 20]: 2 (33.33) n (%)
Subjects with drug-related adverse event: Cough [4, 20]: 0 n (%)
Subjects with drug-related adverse event: Diarrhea [4, 20]: 1 (16.67) n (%)
Subjects with drug-related adverse event: Dizziness [4, 20]: 1 (16.67) n (%)
Subjects with drug-related adverse event: Fatigue [4, 20]: 0 n (%)
Subjects with drug-related adverse event: Feces soft [4, 20]: 0 n (%)
Subjects with drug-related adverse event: Headache [4, 20]: 1 (16.67) n (%)
Subjects with drug-related adverse event: Lethargy [4, 20]: 0 n (%)
Subjects with drug-related adverse event: Muscle spasms [4, 20]: 0 n (%)
Subjects with drug-related adverse event: Nausea [4, 20]: 1 (16.67) n (%)
Subjects with drug-related adverse event: Productive cough [4, 20]: 0 n (%)
Subjects with drug-related adverse event: Throat tightness [4, 20]: 0 n (%)
No. of subjects with treatment‐emergent adverse events attributed to study drug [4, 21]: 2 (33.33) n (%)
Subjects with drug-related adverse event: Cough [4, 21]: 0 n (%)
Subjects with drug-related adverse event: Diarrhea [4, 21]: 0 n (%)
Subjects with drug-related adverse event: Dizziness [4, 21]: 0 n (%)
Subjects with drug-related adverse event: Fatigue [4, 21]: 0 n (%)
Subjects with drug-related adverse event: Feces soft [4, 21]: 0 n (%)
Subjects with drug-related adverse event: Headache [4, 21]: 1 (16.67) n (%)
Subjects with drug-related adverse event: Lethargy [4, 21]: 0 n (%)
Subjects with drug-related adverse event: Muscle spasms [4, 21]: 0 n (%)
Subjects with drug-related adverse event: Nausea [4, 21]: 1 (16.67) n (%)
Subjects with drug-related adverse event: Productive cough [4, 21]: 0 n (%)
Subjects with drug-related adverse event: Throat tightness [4, 21]: 0 n (%)
No. of subjects with treatment‐emergent adverse events attributed to study drug [4, 22]: 0 n (%)
Subjects with drug-related adverse event: Cough [4, 22]: 0 n (%)
Subjects with drug-related adverse event: Diarrhea [4, 22]: 0 n (%)
Subjects with drug-related adverse event: Dizziness [4, 22]: 0 n (%)
Subjects with drug-related adverse event: Fatigue [4, 22]: 0 n (%)
Subjects with drug-related adverse event: Feces soft [4, 22]: 0 n (%)
Subjects with drug-related adverse event: Headache [4, 22]: 0 n (%)
Subjects with drug-related adverse event: Lethargy [4, 22]: 0 n (%)
Subjects with drug-related adverse event: Muscle spasms [4, 22]: 0 n (%)
Subjects with drug-related adverse event: Nausea [4, 22]: 0 n (%)
Subjects with drug-related adverse event: Productive cough [4, 22]: 0 n (%)
Subjects with drug-related adverse event: Throat tightness [4, 22]: 0 n (%)
Deaths or serious adverse events ([4]; all cohorts): no deaths or serious adverse events
Changes in lung function ([4]; healthy subjects): No clinically significant changes in lung function
Tolerability ([4]; single doses up to 10 mg and 5 mg daily for 7 days in healthy subjects, single 5 mg in mild asthma): well tolerated
Acute bronchospasm or significant change in lung function (>15% change from baseline) ([4]; subjects with mild asthma, single 5 mg): no evidence of acute bronchospasm or significant change in lung function
Irritancy ([4]; subjects with mild asthma, single dose 5 mg): No evidence of irritancy
